Data published in ChEMBL document CHEMBL5241119, “Hydroxypyrone derivatives in drug discovery: from chelation therapy to rational design of metalloenzyme inhibitors” (RSC Med Chem, 2022).

Tests used:
[1] = biological target: T1, Macrophage metalloelastase (Homo sapiens, UniProt P39900); assay: Inhibition of human MMP-12 relative to control; parameters: concentration or dose not given beside the values; details: concentration not given here
Target sequence in this assay (P39900 106-470 limits assumed): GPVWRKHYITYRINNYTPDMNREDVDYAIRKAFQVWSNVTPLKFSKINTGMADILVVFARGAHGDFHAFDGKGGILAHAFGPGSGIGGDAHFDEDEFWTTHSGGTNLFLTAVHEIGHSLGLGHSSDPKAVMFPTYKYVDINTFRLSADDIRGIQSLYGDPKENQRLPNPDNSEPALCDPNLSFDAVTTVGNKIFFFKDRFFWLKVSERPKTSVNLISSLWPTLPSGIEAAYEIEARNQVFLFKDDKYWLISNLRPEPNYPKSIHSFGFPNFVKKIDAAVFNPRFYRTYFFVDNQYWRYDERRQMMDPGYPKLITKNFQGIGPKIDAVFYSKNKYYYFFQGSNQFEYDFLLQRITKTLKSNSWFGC

[2] = Inhibition of NDM-1 (unknown origin) relative to control; parameters: concentration or dose not given beside the values; details: Bacteria; concentration not given here
[3] = biological target: Polymerase acidic protein (Influenza A virus (A/Puerto Rico/8/1934(H1N1))) (UniProt P03433); assay: Inhibition of Influenza A virus N-terminal domain of PA endonuclease relative to control; details: concentration not given here
[4] = biological target: Amine oxidase [flavin-containing] B (Homo sapiens, UniProt P27338); assay: Inhibition of human MAO-B
Chain of Amine oxidase [flavin-containing] B (P27338 whole entry): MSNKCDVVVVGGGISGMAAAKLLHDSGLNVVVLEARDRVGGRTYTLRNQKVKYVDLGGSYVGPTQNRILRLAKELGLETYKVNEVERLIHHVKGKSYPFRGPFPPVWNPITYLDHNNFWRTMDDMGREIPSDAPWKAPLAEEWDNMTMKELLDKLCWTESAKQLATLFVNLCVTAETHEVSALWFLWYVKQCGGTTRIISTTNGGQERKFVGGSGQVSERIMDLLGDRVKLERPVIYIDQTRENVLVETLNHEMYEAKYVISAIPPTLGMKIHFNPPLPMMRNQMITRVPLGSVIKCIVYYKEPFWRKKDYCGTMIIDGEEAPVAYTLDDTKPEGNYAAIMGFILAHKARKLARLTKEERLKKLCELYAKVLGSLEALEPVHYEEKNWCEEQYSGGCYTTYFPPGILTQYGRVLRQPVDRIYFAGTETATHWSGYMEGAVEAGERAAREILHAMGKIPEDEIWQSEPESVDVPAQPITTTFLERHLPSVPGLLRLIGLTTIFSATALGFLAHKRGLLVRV

[5] = biological target: T2, Mushroom tyrosinase (Agaricus bisporus, UniProt O42713+Q00024+C7FF04+C7FF05); assay: Inhibition of mushroom monophenolase
[6] = biological target: T2, Mushroom tyrosinase; assay: Inhibition of mushroom diphenolase
[7] = biological target: Acetylcholinesterase (Electrophorus electricus, UniProt O42275); assay: Inhibition of Electrophorus electricus AChE
Chain of Acetylcholinesterase (O42275 whole entry): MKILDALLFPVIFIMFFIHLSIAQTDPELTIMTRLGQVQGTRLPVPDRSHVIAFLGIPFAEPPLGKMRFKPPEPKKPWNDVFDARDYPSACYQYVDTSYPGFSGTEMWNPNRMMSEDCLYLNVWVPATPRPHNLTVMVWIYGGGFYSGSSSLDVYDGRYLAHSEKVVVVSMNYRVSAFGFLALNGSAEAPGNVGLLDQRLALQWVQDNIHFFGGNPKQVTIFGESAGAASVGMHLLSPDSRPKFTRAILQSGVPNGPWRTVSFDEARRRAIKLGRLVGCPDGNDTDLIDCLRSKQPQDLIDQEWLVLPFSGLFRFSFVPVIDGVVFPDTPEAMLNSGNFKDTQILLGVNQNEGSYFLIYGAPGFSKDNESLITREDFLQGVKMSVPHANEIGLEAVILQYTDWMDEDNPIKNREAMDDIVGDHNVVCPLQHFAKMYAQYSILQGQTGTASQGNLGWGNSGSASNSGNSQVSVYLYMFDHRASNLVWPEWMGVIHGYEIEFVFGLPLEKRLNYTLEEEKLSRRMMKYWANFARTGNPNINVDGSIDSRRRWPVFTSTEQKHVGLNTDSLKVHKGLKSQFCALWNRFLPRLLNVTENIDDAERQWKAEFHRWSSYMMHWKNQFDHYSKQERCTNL

[8] = biological target: T2, Mushroom tyrosinase; assay: Inhibition of mushroom monophenolase activity by Lineweaver-burk reciprocal plot analysis
[9] = biological target: T3, Mushroom tyrosinase (Agaricus bisporus) (UniProt O42713+Q00024+C7FF04+C7FF05); assay: Inhibition of mushroom monophenolase activity using L-DOPA as substrate preincubated with substrate followed by compound addition by Lineweaver-burk reciprocal plot analysis
[10] = biological target: T2, Mushroom tyrosinase; assay: Inhibition of mushroom Diphenolase activity by Lineweaver-burk reciprocal plot analysis
[11] = biological target: T3, Mushroom tyrosinase (Agaricus bisporus); assay: Inhibition of mushroom Diphenolase activity using L-DOPA as substrate preincubated with substrate followed by compound addition by Lineweaver-burk reciprocal plot analysis
[12] = Antioxidant activity assessed as DPPH radical scavenging activity; assay type: functional
[13] = biological target: Lethal factor (Bacillus anthracis, UniProt P15917); assay: Inhibition of anthrax lethal factor
Chain of Lethal factor (P15917 whole entry): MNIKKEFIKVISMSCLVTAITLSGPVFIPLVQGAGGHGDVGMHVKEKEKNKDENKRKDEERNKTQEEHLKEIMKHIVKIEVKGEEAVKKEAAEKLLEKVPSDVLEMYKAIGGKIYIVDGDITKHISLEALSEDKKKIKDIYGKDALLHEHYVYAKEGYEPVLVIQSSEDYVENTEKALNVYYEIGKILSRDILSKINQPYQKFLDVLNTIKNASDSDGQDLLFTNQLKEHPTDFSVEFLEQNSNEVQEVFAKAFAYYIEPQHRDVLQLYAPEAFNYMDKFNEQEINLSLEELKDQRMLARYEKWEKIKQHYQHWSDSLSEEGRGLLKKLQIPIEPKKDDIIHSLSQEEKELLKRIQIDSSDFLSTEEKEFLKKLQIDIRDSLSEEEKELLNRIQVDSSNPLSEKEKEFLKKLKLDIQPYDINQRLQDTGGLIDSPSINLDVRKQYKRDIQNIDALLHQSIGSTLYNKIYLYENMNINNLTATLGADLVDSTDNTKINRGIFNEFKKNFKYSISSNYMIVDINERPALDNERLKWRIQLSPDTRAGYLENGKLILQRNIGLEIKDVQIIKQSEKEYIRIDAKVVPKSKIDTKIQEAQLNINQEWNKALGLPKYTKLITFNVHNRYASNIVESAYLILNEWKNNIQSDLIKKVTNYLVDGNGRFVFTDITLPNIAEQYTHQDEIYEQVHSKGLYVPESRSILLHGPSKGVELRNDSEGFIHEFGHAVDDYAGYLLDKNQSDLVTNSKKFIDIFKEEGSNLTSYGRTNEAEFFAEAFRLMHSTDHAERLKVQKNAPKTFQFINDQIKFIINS

[14] = Inhibition of Pseudomonas aeruginosa Metallo-beta-lactamase VIM-2
[15] = system: Pseudomonas aeruginosa; assay: Inhibition of Pseudomonas aeruginosa Metallo-beta-lactamase VIM-2 at 50 uM relative to control
[16] = Therapeutic index, ratio of CC50 for HEK293 cells to EC50 for Escherichia coli expressing VIM-2; assay type: toxicity; details: human, read-out: Ratio CC50/EC50
[17] = biological target: 72 kDa type IV collagenase (Homo sapiens, UniProt P08253); assay: Inhibition of MMP-2 (unknown origin)
[18] = biological target: T4, Stromelysin-1 (Homo sapiens, UniProt P08254); assay: Inhibition of MMP-3 (unknown origin)
Target sequence in this assay (P08254 whole entry): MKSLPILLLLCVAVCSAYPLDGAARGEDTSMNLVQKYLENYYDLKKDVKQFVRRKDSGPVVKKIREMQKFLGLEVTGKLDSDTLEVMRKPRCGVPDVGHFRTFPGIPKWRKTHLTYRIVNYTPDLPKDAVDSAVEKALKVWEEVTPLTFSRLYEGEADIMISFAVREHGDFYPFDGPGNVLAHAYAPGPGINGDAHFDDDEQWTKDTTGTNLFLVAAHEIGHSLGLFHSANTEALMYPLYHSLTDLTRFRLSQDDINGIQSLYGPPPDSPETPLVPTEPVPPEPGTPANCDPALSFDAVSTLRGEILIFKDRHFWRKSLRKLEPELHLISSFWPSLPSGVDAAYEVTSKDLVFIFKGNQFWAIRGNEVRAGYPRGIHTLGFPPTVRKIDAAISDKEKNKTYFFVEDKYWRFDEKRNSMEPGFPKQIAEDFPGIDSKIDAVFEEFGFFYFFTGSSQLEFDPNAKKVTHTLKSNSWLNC

[19] = biological target: T5, Matrix metalloproteinase-9 (Homo sapiens, UniProt P14780); assay: Inhibition of MMP-9 (unknown origin)
T5 sequence (P14780 whole entry): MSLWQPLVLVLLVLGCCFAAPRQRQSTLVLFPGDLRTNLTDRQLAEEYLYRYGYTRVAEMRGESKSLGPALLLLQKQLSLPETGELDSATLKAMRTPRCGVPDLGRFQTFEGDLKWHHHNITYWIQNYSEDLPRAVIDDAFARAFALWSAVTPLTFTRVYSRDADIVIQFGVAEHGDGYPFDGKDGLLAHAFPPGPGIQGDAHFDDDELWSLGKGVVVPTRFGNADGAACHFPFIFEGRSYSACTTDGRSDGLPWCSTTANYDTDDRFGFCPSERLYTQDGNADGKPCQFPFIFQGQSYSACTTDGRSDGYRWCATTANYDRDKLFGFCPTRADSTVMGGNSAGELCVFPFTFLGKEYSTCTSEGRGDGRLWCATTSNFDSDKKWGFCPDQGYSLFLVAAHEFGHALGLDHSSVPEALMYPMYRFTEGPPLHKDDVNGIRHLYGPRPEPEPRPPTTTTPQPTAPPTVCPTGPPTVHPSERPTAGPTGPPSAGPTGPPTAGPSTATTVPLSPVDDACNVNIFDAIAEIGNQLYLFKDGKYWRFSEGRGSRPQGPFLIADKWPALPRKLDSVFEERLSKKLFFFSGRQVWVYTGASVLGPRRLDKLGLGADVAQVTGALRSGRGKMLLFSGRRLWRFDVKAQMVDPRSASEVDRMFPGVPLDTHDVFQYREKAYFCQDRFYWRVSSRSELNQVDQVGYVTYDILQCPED

[20] = biological target: T6, Interstitial collagenase (Homo sapiens, UniProt P03956); assay: Inhibition of human MMP-1
T6 sequence (P03956 whole entry): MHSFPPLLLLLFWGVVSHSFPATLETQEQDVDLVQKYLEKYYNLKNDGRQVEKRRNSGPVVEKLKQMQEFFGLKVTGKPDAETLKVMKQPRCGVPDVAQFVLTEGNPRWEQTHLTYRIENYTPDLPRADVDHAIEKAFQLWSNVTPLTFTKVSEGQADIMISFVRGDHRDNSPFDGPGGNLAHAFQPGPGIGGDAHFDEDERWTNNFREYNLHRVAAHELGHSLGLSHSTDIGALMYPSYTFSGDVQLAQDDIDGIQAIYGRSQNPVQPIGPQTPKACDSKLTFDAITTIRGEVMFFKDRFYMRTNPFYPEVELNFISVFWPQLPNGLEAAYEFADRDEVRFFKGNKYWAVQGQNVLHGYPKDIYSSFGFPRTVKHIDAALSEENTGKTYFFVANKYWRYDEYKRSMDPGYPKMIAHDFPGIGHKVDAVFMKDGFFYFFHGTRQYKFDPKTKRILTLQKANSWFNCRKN

[21] = biological target: T7, Matrilysin (Homo sapiens, UniProt P09237); assay: Inhibition of human MMP-7
T7 sequence (P09237 whole entry): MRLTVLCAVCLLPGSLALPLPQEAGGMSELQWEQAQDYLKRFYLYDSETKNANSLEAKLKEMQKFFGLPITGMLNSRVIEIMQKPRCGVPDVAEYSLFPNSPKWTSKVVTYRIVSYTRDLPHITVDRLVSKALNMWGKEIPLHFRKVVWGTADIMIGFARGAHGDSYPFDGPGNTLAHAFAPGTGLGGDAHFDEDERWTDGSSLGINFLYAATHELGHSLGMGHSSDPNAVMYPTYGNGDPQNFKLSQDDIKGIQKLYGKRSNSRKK

[22] = biological target: T5, Matrix metalloproteinase-9; assay: Inhibition of human MMP-9
[23] = biological target: Collagenase 3 (Homo sapiens, UniProt P45452); assay: Inhibition of human MMP-13
[24] = biological target: T8, Neutrophil collagenase (Homo sapiens, UniProt P22894); assay: Inhibition of human MMP-8
Target sequence in this assay (P22894 whole entry): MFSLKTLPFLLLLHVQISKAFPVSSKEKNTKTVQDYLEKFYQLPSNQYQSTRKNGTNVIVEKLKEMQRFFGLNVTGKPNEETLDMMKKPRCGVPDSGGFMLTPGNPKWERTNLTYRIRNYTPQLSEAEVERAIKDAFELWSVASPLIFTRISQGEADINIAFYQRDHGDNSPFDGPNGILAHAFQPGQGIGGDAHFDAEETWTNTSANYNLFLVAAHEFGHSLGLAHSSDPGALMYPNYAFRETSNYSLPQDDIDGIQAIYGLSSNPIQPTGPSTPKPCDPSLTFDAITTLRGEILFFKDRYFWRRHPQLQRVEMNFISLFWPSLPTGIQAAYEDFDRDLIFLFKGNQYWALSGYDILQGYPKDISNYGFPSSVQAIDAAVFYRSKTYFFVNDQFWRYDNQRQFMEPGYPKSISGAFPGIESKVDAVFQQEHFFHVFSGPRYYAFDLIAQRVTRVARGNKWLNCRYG

[25] = biological target: T8, Neutrophil collagenase; assay: Inhibition of beta-glucosidase activated MMP-8 (unknown origin) relative to control; details: concentration not given here
Target sequence in this assay (P22894 101-467 limits assumed): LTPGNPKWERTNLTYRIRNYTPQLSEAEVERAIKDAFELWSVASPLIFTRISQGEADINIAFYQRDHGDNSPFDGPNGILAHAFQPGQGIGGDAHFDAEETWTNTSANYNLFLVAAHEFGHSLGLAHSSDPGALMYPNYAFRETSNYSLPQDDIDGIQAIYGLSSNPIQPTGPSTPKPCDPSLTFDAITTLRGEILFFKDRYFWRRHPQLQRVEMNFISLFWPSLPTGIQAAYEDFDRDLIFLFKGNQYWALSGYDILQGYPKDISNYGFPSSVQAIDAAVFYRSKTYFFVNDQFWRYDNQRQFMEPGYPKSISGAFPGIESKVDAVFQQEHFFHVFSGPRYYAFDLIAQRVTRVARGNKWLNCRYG

[26] = biological target: T5, Matrix metalloproteinase-9; assay: Inhibition of beta-glucosidase activated MMP-9 (unknown origin) relative to control; details: concentration not given here
[27] = biological target: T4, Stromelysin-1; assay: Inhibition of MMP-3 (unknown origin) by fluorescence based assay
Target sequence in this assay (P08254 whole entry): as the sequence (P08254 whole entry) above

[28] = biological target: T4, Stromelysin-1; assay: Inhibition of MMP-3 (unknown origin) by Colorimetric assay
Target sequence in this assay (P08254 whole entry): as above

[29] = biological target: T1, Macrophage metalloelastase; assay: Inhibition of human MMP-12
Target sequence in this assay (P39900 whole entry): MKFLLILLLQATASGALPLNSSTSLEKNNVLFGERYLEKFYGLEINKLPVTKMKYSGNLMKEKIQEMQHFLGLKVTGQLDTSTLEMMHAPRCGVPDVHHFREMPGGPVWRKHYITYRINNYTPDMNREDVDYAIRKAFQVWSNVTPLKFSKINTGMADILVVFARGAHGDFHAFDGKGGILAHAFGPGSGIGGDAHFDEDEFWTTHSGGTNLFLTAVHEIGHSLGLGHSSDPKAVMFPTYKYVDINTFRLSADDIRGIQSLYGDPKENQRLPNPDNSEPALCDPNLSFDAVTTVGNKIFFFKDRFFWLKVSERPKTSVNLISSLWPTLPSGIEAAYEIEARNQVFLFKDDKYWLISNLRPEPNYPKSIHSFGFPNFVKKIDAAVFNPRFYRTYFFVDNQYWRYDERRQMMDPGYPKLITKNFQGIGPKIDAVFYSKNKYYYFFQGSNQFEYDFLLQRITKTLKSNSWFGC

[30] = biological target: Amyloid-beta precursor protein (Homo sapiens) (UniProt P05067); assay: Inhibition of amyloid beta (1 to 42 ) (unknown origin) self aggregation at 100 uM relative to control
[31] = system: SH-SY5Y; assay: Protection against amyloid beta (1 to 42) induced toxicity in human SH-SY5Y cells assessed as increase in cell viability; assay type: functional
[32] = system: Glycine max; assay: Inhibition of soybean 5-LOX relative to control
[33] = biological target: T4, Stromelysin-1; assay: Inhibition of human MMP-3
Target sequence in this assay (P08254 whole entry): as the sequence (P08254 whole entry) above

[34] = organism: Rattus norvegicus; assay: Cardioprotective activity in myocardial ischemia/reperfusion induced Sprague-Dawley rat injury model assessed as recovery of contractile function; assay type: functional
[35] = organism: Rattus norvegicus; assay: Cardioprotective activity in myocardial ischemia/reperfusion induced Sprague-Dawley rat injury model assessed as improved RPP; assay type: functional
[36] = organism: Rattus norvegicus; assay: Cardioprotective activity in myocardial ischemia/reperfusion induced Sprague-Dawley rat injury model assessed as improved coronary flow rate; assay type: functional
[37] = organism: Rattus norvegicus; assay: Cardioprotective activity in myocardial ischemia/reperfusion induced Sprague-Dawley rat injury model assessed as reduction in muscle damage; assay type: functional; parameters: scale not given: the % may be the effect or the level left
[38] = organism: Rattus norvegicus; assay: Cardioprotective activity in myocardial ischemia/reperfusion induced Sprague-Dawley rat injury model assessed as reduction in fibrillar collagen damage; assay type: functional; parameters: scale not given: the % may be the effect or the level left
[39] = biological target: T5, Matrix metalloproteinase-9; assay: Inhibition of human MMP-9 at 100 uM relative to control
[40] = biological target: Interstitial collagenase (Homo sapiens) (UniProt P03956); assay: Inhibition of human MMP-1 at 100 uM relative to control
[41] = biological target: T4, Stromelysin-1; assay: Inhibition of human MMP-3 at 100 uM relative to control

Oc1coccc1=S
inhibition [1]: 93%
inhibition [2]: 90%
inhibition [3]: > 90%

Cc1cc(=O)c(O)c(CO)n1CCCn1cc(COc2cc3ccccc3oc2=O)nn1
IC50 [4]: 0.86 µM

CCCCCCCCn1cc(O)c(=O)cc1COC(=O)[C@H](N)Cc1ccccc1
IC50 [5]: 12.6 µM
IC50 [6]: 4.01 µM

Cc1c(OCc2ccccc2)c(=O)ccn1-c1ccc(CC(=O)Nc2ccc(Cc3nc4ccccc4s3)cc2)cc1
IC50 [7]: 14.7 µM

Cc1cc(=O)c(O)c(CO)n1CCn1cc(COc2ccc3ccc(=O)oc3c2)nn1
IC50 [4]: 0.68 µM

Cn1cc(O)c(=O)cc1/C=C/C(=O)c1ccc(F)cc1
IC50 [5]: 3.07 µM
IC50 [6]: 17.05 µM

CCCCCCCCO/N=C/c1cc(=O)c(O)c[nH]1
IC50 [5]: 1.6 µM
IC50 [6]: 7.99 µM
Ki [8]: 32.54 µM
Kis [9]: 21.3 µM
Ki [10]: 32.54 µM
Kis [11]: 21.3 µM

On1ccc2[nH]cnc2c1=S
inhibition [2]: 90%

Cc1c(O)c(=O)ccn1CCCC(=O)N1CCCC1c1nc2ccccc2s1 (stereo not given)
EC50 [12]: 247 µM

Cc1cc(=S)c(O)c(C(=O)NCc2ccc(-c3ccccc3)cc2)o1
IC50 [13]: 13.9 µM

S=c1cc[nH]c2[nH]cnc12
inhibition [2]: 90%

CS(=O)(=O)Cc1cccc(=S)n1O
inhibition [1]: 93%
inhibition [2]: 90%
inhibition [3]: > 90%

O=C(O)c1c[nH]c2ccccc2c1=S
inhibition [1]: 93%

O=C(O)c1cccc(=S)n1O
Ki [14]: 0.013 µM
inhibition [15]: 98%
selectivity ratio [16]: 8800

Cc1c(O)c(=S)ccn1Cc1ccc(-c2ccccc2)cc1
IC50 [17]: 1 µM
IC50 [18]: 4 µM
IC50 [19]: 2 µM
IC50 [13]: 3 µM

Cc1c(O)c(=S)ccn1C
inhibition [2]: 90%

Cn1ccc(=O)c(O)c1C(=O)NCc1ccc(-c2ccccc2)cc1
IC50 [20]: 25 µM
IC50 [21]: 25 µM
IC50 [22]: 25 µM
IC50 [23]: 4 µM
IC50 [24]: 1.2 µM

Cc1cc(=O)c(O)c(C(=O)NCc2ccc(-c3ccccc3)cc2)n1C
IC50 [20]: 25 µM
IC50 [21]: 25 µM
IC50 [22]: 25 µM
IC50 [23]: 4 µM
IC50 [24]: 1.2 µM

Cc1c(OCc2ccccc2)c(=O)ccn1CCCC(=O)Nc1ccc(Cc2nc3ccccc3s2)cc1
IC50 [7]: 14.7 µM

CCCCCCO/N=C/c1cc(=O)c(O)c[nH]1
IC50 [5]: 2.04 µM
IC50 [6]: 13.89 µM
Ki [8]: 24.84 µM
Kis [9]: 18.1 µM
Ki [10]: 24.84 µM
Kis [11]: 18.1 µM

Cc1occc(=O)c1O[C@@H]1O[C@H](CO)[C@@H](O)[C@H](O)[C@H]1O
inhibition [25]: 33%
inhibition [26]: 73%

COc1ccc(C(=O)/C=C/c2cc(=O)c(O)c[nH]2)cc1OC
IC50 [5]: 2.75 µM
IC50 [6]: 19.3 µM

[O-][n+]1ccccc1S [PYRITHIONE]
IC50 [27]: 35 µM
IC50 [28]: 20 µM

Cc1cc(=O)c(O)c(C(=O)NCc2ccc(-c3ccccc3)cc2)o1
IC50 [20]: 25 µM
IC50 [21]: 25 µM
IC50 [22]: 25 µM
IC50 [23]: 4 µM
IC50 [24]: 0.018 µM
IC50 [29]: 0.018 µM

Cc1c(OCc2ccccc2)c(=O)ccn1-c1ccc(CC(=O)Nc2ccc(-c3nc4ccccc4s3)cc2)cc1
IC50 [7]: 14.7 µM
inhibition [30]: 68%
Activity [31]: 100%

[O-][n+]1ccccc1S
IC50 [14]: 0.908 µM
Ki [14]: 0.217 µM

Cc1c(O)c(=O)ccn1C
inhibition ([9]; concentration not given here): 2%
inhibition [32]: 70%

On1cc2ccccc2cc1=S
inhibition [3]: > 90%

O=C(NCc1ccc(-c2ccccc2)cc1)c1occc(=O)c1O
IC50 [20]: 25 µM
IC50 [21]: 25 µM
IC50 [22]: 25 µM
IC50 [23]: 4 µM
IC50 [24]: 0.018 µM
IC50 [29]: 0.018 µM
IC50 [33]: 0.077 µM

Oc1coc2ccccc2c1=S
inhibition [1]: 93%
inhibition [3]: > 90%

O=C(NCc1ccc(-c2ccccc2)cc1)c1cccc(=O)n1O
IC50 [20]: 25 µM
IC50 [21]: 25 µM
IC50 [22]: 25 µM
IC50 [23]: 4 µM
IC50 [24]: 0.018 µM
Activity [34]: 80%
Activity [35]: 23%
Activity [36]: 22%
Activity [37]: 25%
Activity [38]: 60%

Cc1occ(O)c(=S)c1C(=O)NCc1ccc(-c2ccccc2)cc1
inhibition [39]: 54%

CCCCCCCCn1ccc(=O)c(O)c1C
inhibition [32]: 40%

Cc1occ(O)c(=O)c1C(=O)NCc1ccc(-c2ccccc2)cc1
inhibition [40]: 21%
inhibition [41]: 21%

On1ccc2ccccc2c1=S
inhibition [1]: 93%
inhibition [2]: 90%

CCCNC(=O)CCC(=O)NCc1c(O)c(=O)cc(C)n1C
inhibition [32]: 10%
